Test results from US20180334436A1 (VIIV HEALTHCARE UK LIMITED, priority 2015, published 2018).

Tested on: HIV
Experiment: MT4 assay (anti-HIV activity)
Assay type: cell-based
Settings: Human immunodeficiency virus 1, 96 h, antiviral HIV activity in HTLV-1 transformed cell line MT-4; luciferase read 96 hours later; 10 point dose response
Outline: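 MT-4 cells infected with HIV, with inhibition readout by CellTiter-Glo luminescence at 96 h relative to no-compound control. Cytotoxicity measured in parallel under the same conditions. IC50 from a 10-point, 3-4-fold dilution series spanning >1000-fold, fitted with a four-parameter logistic equation.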

For `Cc1c(-c2c(C)c3c(c(C)c2[C@H](OC(C)(C)C)C(=O)O)CCN(CC2CCCCC2)C3)cc(F)c2c1CCCO2` [Example 85, (S)-2-(tert-Butoxy)-2-((R)-2-(cyclohexylmethyl)-7-(8-fluoro-5-methylchroman-6-yl)-5,8-dimethyl-1,2,3,4-tetrahydroisoquinolin-6-yl)acetic Acid], which IC50 is on record?
The IC50 was 14 nM.

Which IC50 does the source give for `Cc1c2c(c(C)c([C@H](OC(C)(C)C)C(=O)O)c1-c1ccc(Cl)cc1)CCN(S(=O)(=O)C1CCCCC1)C2` [Example 86, (S)-2-(tert-butoxy)-2-(7-(4-chlorophenyl)-2-(cyclohexylsulfonyl)-5,8-dimethyl-1,2,3,4-tetrahydroisoquinolin-6-yl)acetic Acid] here?
Its IC50 is 38 nM.

`Cc1c2c(c(C)c([C@H](OC(C)(C)C)C(=O)O)c1-c1ccc(Cl)cc1)CCN(C1CCCCC1)C2` [Example 87, (S)-2-(tert-butoxy)-2-(7-(4-chlorophenyl)-2-cyclohexyl-5,8-dimethyl-1,2,3,4-tetrahydroisoquinolin-6-yl)acetic Acid] was tested. Which IC50 did it give?
The IC50 was 15 nM.

With `Cc1c(-c2c(C)c3c(c(C)c2[C@H](OC(C)(C)C)C(=O)O)CCN(Cc2ccccc2)C3)cc(F)c2c1CCCO2` [Example 90, (S)-2-((R)-2-Benzyl-7-(8-fluoro-5-methylchroman-6-yl)-5,8-dimethyl-1,2,3,4-tetrahydroisoquinolin-6-yl)-2-(tert-butoxy)acetic Acid] as the compound, how does the IC50 read?
The IC50 was 67 nM.

For `Cc1c(-c2c(C)c3c(c(C)c2[C@H](OC(C)(C)C)C(=O)O)CCN(C(=O)c2ccccc2)C3)cc(F)c2c1CCCO2` [Example 91, (S)-2-((R)-2-Benzoyl-7-(8-fluoro-5-methylchroman-6-yl)-5,8-dimethyl-1,2,3,4-tetrahydroisoquinolin-6-yl)-2-(tert-butoxy)acetic Acid], which IC50 is on record?
The IC50 was 48 nM.

How did the IC50 turn out when `COc1ccc(C(=O)N2CCc3c(C)c([C@H](OC(C)(C)C)C(=O)O)c(-c4cc(F)c5c(c4C)CCCO5)c(C)c3C2)cc1F` [Example 92, (S)-2-(tert-Butoxy)-2-((R)-2-(3-fluoro-4-methoxybenzoyl)-7-(8-fluoro-5-methylchroman-6-yl)-5,8-dimethyl-1,2,3,4-tetrahydroisoquinolin-6-yl)acetic Acid] was run?
The IC50 was 153 nM.

With `Cc1c(-c2c(C)c3c(c(C)c2[C@H](OC(C)(C)C)C(=O)O)CCN(C(=O)c2cccc(OC(C)C)c2)C3)cc(F)c2c1CCCO2` [Example 93, (S)-2-(tert-Butoxy)-2-((R)-7-(8-fluoro-5-methylchroman-6-yl)-2-(3-isopropoxybenzoyl)-5,8-dimethyl-1,2,3,4-tetrahydroisoquinolin-6-yl)acetic Acid] as the compound, how does the IC50 read?
The IC50 was 178 nM.

Which IC50 does the source give for `Cc1c(-c2c(C)c3c(c(C)c2[C@H](OC(C)(C)C)C(=O)O)CCN(C(=O)c2ccc(C(F)(F)F)cc2)C3)cc(F)c2c1CCCO2` [Example 94, (S)-2-(tert-Butoxy)-2-((R)-7-(8-fluoro-5-methylchroman-6-yl)-5,8-dimethyl-2-(4-(trifluoromethyl)benzoyl)-1,2,3,4-tetrahydroisoquinolin-6-yl)acetic Acid] here?
Its IC50 is 384 nM.

Which IC50 does the source give for `Cc1ccc(C(=O)N2CCc3c(C)c([C@H](OC(C)(C)C)C(=O)O)c(-c4cc(F)c5c(c4C)CCCO5)c(C)c3C2)cn1` [Example 96, (S)-2-(tert-Butoxy)-2-((R)-7-(8-fluoro-5-methylchroman-6-yl)-5,8-dimethyl-2-(6-methylnicotinoyl)-1,2,3,4-tetrahydroisoquinolin-6-yl)acetic Acid] here?
The IC50 was 109 nM.

With `Cc1ccc(-c2c(C)c3c(c(C)c2C(OC(C)(C)C)C(=O)O)CC(=O)N(Cc2ccccc2)C3)cc1` (centres unmarked) [Example 98, 2-(2-Benzyl-5,8-dimethyl-3-oxo-7-(p-tolyl)-1,2,3,4-tetrahydroisoquinolin-6-yl)-2-(tert-butoxy)acetic Acid] as the compound, how does the IC50 read?
The IC50 was 14 nM.

How did the IC50 turn out when `Cc1ccc(-c2c(C)c3c(c(C)c2C(OC(C)(C)C)C(=O)O)CN(Cc2ccccc2)C(=O)C3)cc1` (centres unmarked) [Example 99, 2-(2-Benzyl-5,8-dimethyl-3-oxo-6-(p-tolyl)-1,2,3,4-tetrahydroisoquinolin-7-yl)-2-(tert-butoxy)acetic Acid] was run?
Its IC50 is 3300 nM.

Which IC50 does the source give for `Cc1ccc(-c2c(C)c3c(c(C)c2[C@H](OC(C)(C)C)C(=O)O)CN(Cc2ccccc2)C(=O)C3)cc1` [Example 100, (S)-2-(2-Benzyl-5,8-dimethyl-3-oxo-6-(p-tolyl)-1,2,3,4-tetrahydroisoquinolin-7-yl)-2-(tert-butoxy)acetic Acid] here?
The IC50 was 1360 nM.

With `Cc1ccc(-c2c(C)c3c(c(C)c2[C@H](OC(C)(C)C)C(=O)O)CC(=O)N(Cc2ccccc2)C3)cc1` [Example 101, (S)-2-(2-Benzyl-5,8-dimethyl-3-oxo-7-(p-tolyl)-1,2,3,4-tetrahydroisoquinolin-6-yl)-2-(tert-butoxy)acetic Acid] as the compound, how does the IC50 read?
Its IC50 is 4 nM.

How did the IC50 turn out when `Cc1c(-c2c(C)c3c(c(C)c2[C@H](OC(C)(C)C)C(=O)O)CC(=O)N(C2CCCC(C)(C)C2)C3)cc(F)c2c1CCCO2` (stereo partly drawn) [Example 111, (2S)-2-(tert-butoxy)-2-((7R)-2-(3,3-dimethylcyclohexyl)-7-(8-fluoro-5-methylchroman-6-yl)-5,8-dimethyl-3-oxo-1,2,3,4-tetrahydroisoquinolin-6-yl)acetic Acid] was run?
The IC50 was 3 nM.

For `Cc1c(-c2c(C)c3c(c(C)c2[C@H](OC(C)(C)C)C(=O)O)CC(=O)N(C2CCCCC2(C)C)C3)cc(F)c2c1CCCO2` (stereo partly drawn) [Example 116, (2S)-2-(tert-butoxy)-2-((7R)-2-(2,2-dimethylcyclohexyl)-7-(8-fluoro-5-methylchroman-6-yl)-5,8-dimethyl-3-oxo-1,2,3,4-tetrahydroisoquinolin-6-yl)acetic Acid], which IC50 is on record?
The IC50 was 3 nM.

Which IC50 does the source give for `Cc1c(-c2c(C)c3c(c(C)c2[C@H](OC(C)(C)C)C(=O)O)CC(=O)N(C2CCCC(F)(F)C2)C3)cc(F)c2c1CCCO2` (stereo partly drawn) [Example 117, (2S)-2-(tert-butoxy)-2-((7R)-2-(3,3-difluorocyclohexyl)-7-(8-fluoro-5-methylchroman-6-yl)-5,8-dimethyl-3-oxo-1,2,3,4-tetrahydroisoquinolin-6-yl)acetic Acid] here?
Its IC50 is 2 nM.

`Cc1ccc(-c2c(C)c3c(c(C)c2C(OC(C)(C)C)C(=O)O)C(=O)N(Cc2ccccc2)CC3)cc1` (centres unmarked) [Example 121, 2-(2-benzyl-5,8-dimethyl-1-oxo-6-(p-tolyl)-1,2,3,4-tetrahydroisoquinolin-7-yl)-2-(tert-butoxy)acetic Acid] was tested. Which IC50 did it give?
The IC50 was 474 nM.
